Like-named read-outs stand apart in the source and are kept apart here. Bounds are passed on as bounds.

The values that follow come from patent US4956384A, “1,4:3,6-dianhydrosorbitol 2-mononitrate and 5-mononitrate esters and pharmaceutical compositions therefrom” (Chiesi Farmaceutici S.p.A., priority 1987, dated 1990).

The nature of data set [1]: octanol/water partition coefficient. It counts as physicochemical. Conditions: for logP: octanol/water, read-out: Partition coeff. (octanol/H2O) (converted).
A short description of data set [2]: Hypotensive activity in anesthetized rats (mean arterious pressure, i.v. bolus). Type of data set: in vivo, male albino rats (D strain, Charles River). The settings on record: for Potency ratio, In vivo: Table III; for ED20: iv, read-out: ED20, dose reducing by 20% the mean arterious pressure (graphically calculated). How it is done: Male albino rats were used (D strain, Charles River) anesthetized with a starting dose of sodium pentobarbital of 60 mg/kg i.p. and thermoregulated at 37° C. Mean arterious pressure was monitored at right carotidis arteria, while the compounds were administered as a bolus into the jugular vein, at constant volumes of 0.3 and 1 ml/kg.
The results, expressed as ED20, dose causing a 20% reduction in the mean arterious pressure (graphically calculated) are expressed in table III, relating to compounds substituted at the 2- and 5-positions.

Data set [3] deals with helicoidal strips of rabbit aorta. Put plainly: In vitro vasodilating activity: inhibition of K+-induced contraction of aorta strips. Type of data set: cell-based, male albino rabbits (New Zealand strain). Conditions: for Potency ratio, In vitro: Table III; for IC50: Oryctolagus cuniculus, read-out: ED50 (concentration causing a 50% inhibition of contraction). How it is done:
Aorta strips from male albino rabbits (New Zealand strain), prepared according to the method by Furchgott and Bhadrakom--J. Pharm. Exp. Ther. 108, 129 (1953), were contracted with a solution enriched in K^+ (100 mM). When the contraction was stable, the test compounds were added, according to the method of cumulative dosages.
The responses were isometrically recorded and expressed as contraction percentage inhibition. The concentration causing 50% inhibition (ED50) was calculated on the basis of the equation of the linear tract of the dose-response curves. The obtained results expressed as ED50 values are reported in tables I and II (which respectively relate to the compounds substituted at the 2-and and 5-positions), together with the values of the octanol/water partition coefficient. The potency ratio for each compound, in comparison with the starting mononitrate, IS-2-N and IS-5-N, is reported in the same tables.

[4] abbreviates: Table II, 5-acyl derivatives of isosorbide 2-nitrate.
The mark [5] stands for this setting: Table II, in comparison with isosorbide 2-nitrate.
Where [6] appears, read: Table I, 2-acyl derivatives of isosorbide 5-nitrate.
[7] abbreviates: Table I, 2-acyl derivatives of isosorbide 5-nitrate, K+ 100 mM.
Where [8] appears, read: Table I, in comparison with isosorbide 5-nitrate.
The mark [9] stands for this setting: Table II, 5-acyl derivatives of isosorbide 2-nitrate, K+ 100 mM.

For `CCCCCCCCCCCCCCCC(=O)O[C@@H]1CO[C@H]2[C@@H]1OC[C@@H]2O[N+](=O)[O-]` [VIII, 1,4:3,6-dianhydrosorbitol 2-nitrate 5-palmitate], in data set [1] (setting [4]), the logP was 1.51.
As to `COc1cc(C=CC(=O)O[C@@H]2CO[C@H]3[C@@H]2OC[C@@H]3O[N+](=O)[O-])cc(OC)c1OC` [IX, 1,4:3,6-dianhydrosorbitol 5-(3,4,5-trimethoxy)cinnamate 2-nitrate], the logP in data set [1] (setting [4]) was 2.5. For the same compound, the “Potency ratio, In vivo” value in data set [2] (relative to IS-2-N) is recorded as “≈ 20”. Further, the ED20 in data set [2] (anesthetized rat) is 0.6 µmol/kg. In addition, the “Potency ratios (confidence limits)” value in data set [3] (setting [5]) is on record as approximately 3. For the same compound, the “Potency ratio, In vitro” value in data set [3] (relative to IS-2-N) was 6.
With `CC(=O)O[C@H]1CO[C@H]2[C@@H]1OC[C@H]2O[N+](=O)[O-]` [IS-2A-5N, isosorbide 2-acetate 5-nitrate, reference compound], the logP in data set [1] (setting [6]) was 0.579. Also, the “Potency ratio, In vivo” value in data set [2] (relative to IS-5-N) is on record as “≈ 60”. Further, in data set [2] (anesthetized rat), the ED20 is 2.5 µmol/kg. The IC50 in data set [3] (setting [7]) amounted to 33.9 µM. Moreover, in data set [3] (setting [8]), the “Potency ratios (confidence limits)” value was 8.21 (5.11-13.13). Besides, in data set [3] (relative to IS-5-N), the “Potency ratio, In vitro” value is reported as 8.
Take `O=[N+]([O-])O[C@@H]1CO[C@H]2[C@@H]1OC[C@@H]2O` [IS-5-N, 1,4:3,6-dianhydrosorbitol 5-nitrate, reference compound]: the logP in data set [1] (setting [6]) was -0.0501. In addition, the ED20 in data set [2] (Rattus norvegicus) was 150 µmol/kg. The “Potency ratio, In vivo” value in data set [2] (relative to IS-5-N) was determined as 1. Further, the IC50 in data set [3] came to 253 µM. Besides, the “Potency ratios (confidence limits)” value in data set [3] (setting [8]) came out at 1.0. Moreover, in data set [3] (relative to IS-5-N), the “Potency ratio, In vitro” value stood at 1.
Take `O=[N+]([O-])O[C@H]1CO[C@H]2[C@@H]1OC[C@H]2O` [IS-2-N, 1,4:3,6-dianhydrosorbitol 2-nitrate, reference compound]: the logP in data set [1] (setting [4]) was -0.231. Further, in data set [2] (Rattus norvegicus), the ED20 was 12 µmol/kg. Also, in data set [2] (relative to IS-2-N), the “Potency ratio, In vivo” value is recorded as “≈ 1”. Besides, in data set [3], the IC50 was 23.9 µM. In addition, in data set [3] (setting [5]), the “Potency ratios (confidence limits)” value turned out to be 1.0. Besides, in data set [3] (relative to IS-2-N), the “Potency ratio, In vitro” value is 1.
On to `O=C(O)CCC(=O)O[C@H]1CO[C@H]2[C@@H]1OC[C@H]2O[N+](=O)[O-]` [XIV, 1,4:3,6-dianhydrosorbitol 5-nitrate 2-(3-carboxy)propionate], for which the logP in data set [1] (setting [6]) is 0.294. In data set [2] (Rattus norvegicus), the ED20 is 300 µmol/kg. Also, the “Potency ratio, In vivo” value in data set [2] (relative to IS-5-N) was “≈ 0.5”. In data set [3], the IC50 came out at 2100 µM. In addition, the “Potency ratios (confidence limits)” value in data set [3] (setting [8]) was 0.16 (0.10-0.25). In addition, the “Potency ratio, In vitro” value in data set [3] (relative to IS-5-N) is 0.2.
For the compound `CCC(=O)O[C@H]1CO[C@H]2[C@@H]1OC[C@H]2O[N+](=O)[O-]` [IS-2P-5N, isosorbide 5-nitrate 2-propionate, reference compound], the logP in data set [1] (setting [6]) was 1.15. Also, the “Potency ratio, In vivo” value in data set [2] (relative to IS-5-N) is listed as “≈ 65”. In addition, in data set [2] (anesthetized rat), the ED20 was 2.3 µmol/kg. In data set [3] (setting [7]), the IC50 was found to be 56.8 µM. The “Potency ratios (confidence limits)” value in data set [3] (setting [8]) was 5.19 (3.53-7.52). In addition, the “Potency ratio, In vitro” value in data set [3] (relative to IS-5-N) came to 5.
In the case of `CCOC(=O)CCCCC(=O)O[C@H]1CO[C@H]2[C@@H]1OC[C@H]2O[N+](=O)[O-]` [XI, 1,4:3,6-dianhydrosorbitol 5-nitrate 2-(5-ethoxycarbonyl)pentanoate], the logP in data set [1] (setting [6]) is 1.48. Further, in data set [2] (relative to IS-5-N), the “Potency ratio, In vivo” value was “≈ 21”. Moreover, the ED20 in data set [2] (anesthetized rat) was 7 µmol/kg. Also, the IC50 in data set [3] (setting [7]) was found to be 46.4 µM. The “Potency ratios (confidence limits)” value in data set [3] (setting [8]) was 6.91 (4.78-9.88). Also, the “Potency ratio, In vitro” value in data set [3] (relative to IS-5-N) is given as 7.
Consider `COc1ccc(C=CC(=O)O[C@@H]2CO[C@H]3[C@@H]2OC[C@@H]3O[N+](=O)[O-])cc1OC` [VII, 1,4:3,6-dianhydrosorbitol 5-(3,4-dimethoxy)cinnamate 2-nitrate], for which the logP in data set [1] (setting [4]) was 2.2. Also, the “Potency ratio, In vivo” value in data set [2] (relative to IS-2-N) is given as “≈ 40”. In data set [2] (anesthetized rat), the ED20 is 0.3 µmol/kg. In addition, in data set [3] (setting [5]), the “Potency ratios (confidence limits)” value is approximately 1. The “Potency ratio, In vitro” value in data set [3] (relative to IS-2-N) is given as 1.
On to `COc1cc(C=CC(=O)O[C@H]2CO[C@H]3[C@@H]2OC[C@H]3O[N+](=O)[O-])cc(OC)c1OC` [VI, 1,4:3,6-dianhydrosorbitol 2-(3,4,5-trimethoxy)cinnamate 5-nitrate], for which, in data set [1] (setting [6]), the logP was 2.44. For the same compound, the “Potency ratio, In vivo” value in data set [2] (relative to IS-5-N) is given as “≈ 94”. Also, in data set [2] (anesthetized rat), the ED20 is 1.6 µmol/kg. Moreover, the “Potency ratios (confidence limits)” value in data set [3] (setting [8]) is recorded as 7.08 (4.21-11.67). For the same compound, the “Potency ratio, In vitro” value in data set [3] (relative to IS-5-N) was found to be 7.
For `CCOC(=O)CCCCC(=O)O[C@@H]1CO[C@H]2[C@@H]1OC[C@@H]2O[N+](=O)[O-]` [XIII, 1,4:3,6-dianhydrosorbitol 2-nitrate 5-(5-ethoxycarbonyl)-pentanoate], the logP in data set [1] (setting [4]) was 1.58. Moreover, the “Potency ratio, In vivo” value in data set [2] (relative to IS-2-N) is recorded as “≈ 4.8”. For the same compound, in data set [2] (anesthetized rat), the ED20 is 2.5 µmol/kg. Also, the “Potency ratios (confidence limits)” value in data set [3] (setting [5]) was 6.65 (4.81-9.10). In addition, the “Potency ratio, In vitro” value in data set [3] (relative to IS-2-N) came to 6.6.
Consider `COc1ccc(C=CC(=O)O[C@H]2CO[C@H]3[C@@H]2OC[C@H]3O[N+](=O)[O-])cc1OC` [IV, 1,4:3,6-dianhydrosorbitol 2-(3,4-dimethoxy)cinnamate 5-nitrate], for which, in data set [1] (setting [6]), the logP was 2.96. The “Potency ratio, In vivo” value in data set [2] (relative to IS-5-N) is reported as “≈ 83”. Moreover, the ED20 in data set [2] (anesthetized rat) is 1.8 µmol/kg. In addition, in data set [3] (setting [8]), the “Potency ratios (confidence limits)” value is recorded as approximately 3. Also, in data set [3] (relative to IS-5-N), the “Potency ratio, In vitro” value came to 3.
Consider `O=C(CCC(=O)O[C@H]1CO[C@H]2[C@@H]1OC[C@H]2O[N+](=O)[O-])O[C@H]1CO[C@H]2[C@@H]1OC[C@H]2O[N+](=O)[O-]` [XII, bis-(1,4:3,6-dianhydrosorbitol 5-nitrate-2-il)succinate], for which the logP in data set [1] (setting [6]) was 1.81. Further, the ED20 in data set [2] (Rattus norvegicus) is 7 µmol/kg. Also, in data set [2] (relative to IS-5-N), the “Potency ratio, In vivo” value is “≈ 21”. Moreover, in data set [3] (setting [8]), the “Potency ratios (confidence limits)” value is given as approximately 20. In data set [3] (relative to IS-5-N), the “Potency ratio, In vitro” value is listed as 7.
Regarding `CCCCCCCCCCCCCCCC(=O)O[C@H]1CO[C@H]2[C@@H]1OC[C@H]2O[N+](=O)[O-]` [III, 1,4:3,6-dianhydrosorbitol 5-nitrate 2-palmitate], the logP in data set [1] (setting [6]) is 1.35. Moreover, in data set [3] (setting [7]), the IC50 was more than 10 µM.
Turning to `CC(=O)O[C@@H]1CO[C@H]2[C@@H]1OC[C@@H]2O[N+](=O)[O-]` [IS-5A-2N, isosorbide 5-acetate 2-nitrate, reference compound], the logP in data set [1] (setting [4]) was 0.418. Further, the “Potency ratio, In vivo” value in data set [2] (relative to IS-2-N) is given as “≈ 5.4”. Besides, the ED20 in data set [2] (anesthetized rat) was 2.2 µmol/kg. In addition, the IC50 in data set [3] (setting [9]) worked out at 3.97 µM. Moreover, the “Potency ratios (confidence limits)” value in data set [3] (setting [5]) is 6.55 (4.60-9.17). Besides, the “Potency ratio, In vitro” value in data set [3] (relative to IS-2-N) is 6.5.
For `O=C(C=Cc1ccccc1)O[C@H]1CO[C@H]2[C@@H]1OC[C@H]2O[N+](=O)[O-]` [V, 1,4:3,6-dianhydrosorbitol 2-cinnamate 5-nitrate], the “Partition coeff. (octanol/H2O)” value in data set [1] is given as “very high”. Also, the “Potency ratio, In vivo” value in data set [2] (relative to IS-5-N) was “≈ 79”. For the same compound, the ED20 in data set [2] (anesthetized rat) is 1.9 µmol/kg. The “Potency ratios (confidence limits)” value in data set [3] (setting [8]) is recorded as approximately 1. Moreover, the “Potency ratio, In vitro” value in data set [3] (relative to IS-5-N) is 1.
`CCC(=O)O[C@@H]1CO[C@H]2[C@@H]1OC[C@@H]2O[N+](=O)[O-]` [IS-5P-2N, isosorbide 2-nitrate 5-propionate, reference compound]: the logP in data set [1] (setting [4]) was 0.947. In data set [3] (setting [9]), the IC50 is 1.54 µM. In addition, the “Potency ratios (confidence limits)” value in data set [3] (setting [5]) is recorded as 15.59 (10.74-22.44). For the same compound, the “Potency ratio, In vitro” value in data set [3] (relative to IS-2-N) turned out to be 15.6.
